Laboratory results taken from patent publication US10131652B2, “Pyrimidinyloxy benzene derivatives as herbicides” (E. I. DU PONT DE NEMOURS AND COMPANY, priority 2014, dated 2018).

Tests used:
Format in all cases: in vivo
[1] = system: small-flower umbrella sedge (Cyperus difformis); experiment: Test C flooded paddy test plant response; conditions: Flood, 250 g ai/ha; scale of 0 to 100 where 0 is no effect and 100 is complete control; 13 to 15 days
Method in brief: (§1)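 Scale 0 (no effect) to 100 (complete control), assigned visually versus controls after 13–15 d greenhouse. Application: directly to paddy water, 3 cm flood depth kept constant, 2-leaf stage.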

[2] = system: ducksalad (Heteranthera limosa); experiment: Test C flooded paddy test plant response; conditions: Flood, 250 g ai/ha; scale of 0 to 100 where 0 is no effect and 100 is complete control; 13 to 15 days
Method in brief: as §1

[3] = system: barnyardgrass (Echinochloa crus-galli); experiment: Test C flooded paddy test plant response; conditions: Flood, 250 g ai/ha; scale of 0 to 100 where 0 is no effect and 100 is complete control; 13 to 15 days
Method in brief: as §1

rice (Oryza sativa) = experiment: Test C flooded paddy test plant response; conditions: Flood, 250 g ai/ha; scale of 0 to 100 where 0 is no effect and 100 is complete control; 13 to 15 days
Method in brief: as §1

[4] = system: galium (catchweed bedstraw, Galium aparine); experiment: Test B postemergence plant response; conditions: 125 g ai/ha, postemergence; 0 to 100 scale, 0 no effect, 100 complete control
Method in brief: (§2)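 Plants grown in pots of loam soil–sand blend were sprayed postemergence with formulated test chemicals at 2 to 10 cm height, one- to two-leaf stage. After about 10 days in a greenhouse, injury was visually rated against untreated controls on a 0 to 100 scale (0 no effect, 100 complete control).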

[5] = system: blackgrass (Alopecurus myosuroides); experiment: Test B postemergence plant response; conditions: 0 to 100 scale, 0 no effect, 100 complete control
Method in brief: as §2

[6] = system: giant foxtail (Setaria faberii); experiment: Test B pre-/postemergence plant response; conditions: for Foxtail, Giant plant response rating: 0 to 100 scale (0 no effect, 100 complete control)
Method in brief: (§3)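 Visual injury rating, 0 (no effect) to 100 (complete control), vs untreated controls after ~10 d greenhouse. Pre: directed soil spray after planting in loam/sand. Post: plants 2–10 cm, 1–2 leaf stage. Compound in non-phytotoxic solvent plus surfactant.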

kochia (Kochia scoparia) = experiment: Test B pre-/postemergence plant response; conditions: for Kochia plant response rating: 0 to 100 scale (0 no effect, 100 complete control)
Method in brief: as §3

[7] = system: Italian ryegrass (Lolium multiflorum); experiment: Test B pre-/postemergence plant response; conditions: for Ryegrass, Italian plant response rating: 0 to 100 scale (0 no effect, 100 complete control)
Method in brief: as §3

corn (Zea mays) = experiment: Test B pre-/postemergence plant response; conditions: 0 to 100 scale, 0 no effect, 100 complete control
Method in brief: as §3

[8] = system: barnyardgrass (Echinochloa crus-galli); experiment: Test B pre-/postemergence plant response; conditions: for Barnyardgrass plant response rating: 0 to 100 scale (0 no effect, 100 complete control)
Method in brief: as §3

[9] = system: ragweed (common ragweed, Ambrosia elatior); experiment: Test B pre-/postemergence plant response; conditions: for Ragweed plant response rating: 0 to 100 scale (0 no effect, 100 complete control)
Method in brief: as §3

[10] = system: pigweed (Amaranthus retroflexus); experiment: Test B pre-/postemergence plant response; conditions: for Pigweed plant response rating: 0 to 100 scale (0 no effect, 100 complete control)
Method in brief: as §3

[11] = system: wheat (Triticum aestivum); experiment: Test B pre-/postemergence plant response; conditions: 125 g ai/ha, postemergence; 0 to 100 scale, 0 no effect, 100 complete control
Method in brief: as §3

[12] = 31 g ai/ha, Postemergence, 0 to 100 scale, 0 no effect, 100 complete control
[13] = 31 g ai/ha, Preemergence, 0 to 100 scale where 0 is no effect and 100 is complete control
[14] = 125 g ai/ha, postemergence, 0 to 100 scale, 0 no effect, 100 complete control

Structure (SMILES)	Sedge, Umbrella plant response rating [1]	Ducksalad plant response rating [2]	Barnyardgrass plant response rating [3]	Rice plant response rating (rice (Oryza sativa))	Plant response rating, Galium [4]	Plant response rating, Blackgrass ([5]; 31 g ai/ha, Postemergence)	Plant response rating, Blackgrass ([5]; 125 g ai/ha, postemergence)	Plant response rating, Foxtail, Giant [6, 12]	Plant response rating, Foxtail, Giant [6, 13]	Plant response rating, Foxtail, Giant [6, 14]	Foxtail, Giant plant response rating ([6]; Preemergence, 125 g ai/ha)	Plant response rating, Kochia (kochia (Kochia scoparia); [13])	Plant response rating, Kochia (kochia (Kochia scoparia); [14])	Kochia plant response rating (kochia (Kochia scoparia); Preemergence, 125 g ai/ha)	Plant response rating, Ryegrass, Italian [7, 13]	Plant response rating, Ryegrass, Italian [7, 14]	Ryegrass, Italian plant response rating ([7]; Preemergence, 125 g ai/ha)	Plant response rating, Corn (corn (Zea mays); 31 g ai/ha, Postemergence)	Plant response rating, Corn (corn (Zea mays); 125 g ai/ha, postemergence)	Plant response rating, Barnyardgrass [8, 12]	further results
FC(F)(F)c1cc(-c2c(Cl)cccc2Oc2ncc(Br)cn2)on1 [Compound 127]	100	100	50	60	100	30	90	50	100	90	100	80	90	90	30	90	90	20	50	30	Plant response rating, Barnyardgrass [8, 13]: 70; Plant response rating, Barnyardgrass [8, 14]: 100; Barnyardgrass plant response rating ([8]; Preemergence, 125 g ai/ha): 90; Plant response rating, Ragweed [9, 13]: 10; Plant response rating, Ragweed [9, 14]: 50; Ragweed plant response rating ([9]; Preemergence, 125 g ai/ha): 30; Plant response rating, Pigweed [10, 13]: 100; Plant response rating, Pigweed [10, 14]: 100; Pigweed plant response rating ([10]; Preemergence, 125 g ai/ha): 100; Plant response rating, Wheat [11]: 20
FC(F)(F)COCc1cc(-c2ccccc2Oc2ncc(Cl)cn2)on1 [Compound 128]	0	0	0	0	30	0	20	0	0	10	10	0	50	0	0	0	0	0	10	0	Plant response rating, Barnyardgrass [8, 13]: 0; Plant response rating, Barnyardgrass [8, 14]: 10; Barnyardgrass plant response rating ([8]; Preemergence, 125 g ai/ha): 0; Plant response rating, Ragweed [9, 13]: 0; Plant response rating, Ragweed [9, 14]: 10; Ragweed plant response rating ([9]; Preemergence, 125 g ai/ha): 0; Plant response rating, Pigweed [10, 13]: 0; Plant response rating, Pigweed [10, 14]: 60; Pigweed plant response rating ([10]; Preemergence, 125 g ai/ha): 40; Plant response rating, Wheat [11]: 0
FC(F)(F)COCc1cc(-c2ccccc2Oc2ncc(Br)cn2)on1 [Compound 129]	0	0	0	0	10	0	0	0	0	10	0	0	10	0	0	0	0	0	10	0	Plant response rating, Barnyardgrass [8, 13]: 0; Plant response rating, Barnyardgrass [8, 14]: 10; Barnyardgrass plant response rating ([8]; Preemergence, 125 g ai/ha): 0; Plant response rating, Ragweed [9, 13]: 0; Plant response rating, Ragweed [9, 14]: 0; Ragweed plant response rating ([9]; Preemergence, 125 g ai/ha): 0; Plant response rating, Pigweed [10, 13]: 0; Plant response rating, Pigweed [10, 14]: 30; Pigweed plant response rating ([10]; Preemergence, 125 g ai/ha): 0; Plant response rating, Wheat [11]: 0
FC(F)Oc1cccc(Oc2ncc(Cl)cn2)c1-c1cc(C(F)F)no1 [Compound 132]	75	40	30	20	90	20	50	30	60	70	90	0	60	0	0	40	30	10	30	20	Plant response rating, Barnyardgrass [8, 13]: 20; Plant response rating, Barnyardgrass [8, 14]: 50; Barnyardgrass plant response rating ([8]; Preemergence, 125 g ai/ha): 60; Plant response rating, Ragweed [9, 13]: 0; Plant response rating, Ragweed [9, 14]: 30; Ragweed plant response rating ([9]; Preemergence, 125 g ai/ha): 40; Plant response rating, Pigweed [10, 13]: 90; Plant response rating, Pigweed [10, 14]: 100; Pigweed plant response rating ([10]; Preemergence, 125 g ai/ha): 100; Plant response rating, Wheat [11]: 10
